Measurements reported in patent US8357529B2, “Methods of in vitro protein synthesis” (The Board of Trustees of the Leland Stanford Junior …, priority 2002, dated 2013).
Like-named read-outs stand apart in the source and are kept apart here.

Key:
Format in all cases: biochemical, Escherichia coli
[1] = tested on: protein synthesis in E. coli S30 extract, PANOx system; experiment: Cell-free protein synthesis in the PANOx system (standard reaction mixture)
Method: A standard reaction mixture for a coupled transcription-translation reaction, herein referred to as the PANOx system (Kim and Swartz (2001), supra.) contains the following components: 57 mM HEPES-KOH (pH7.5), 1.2 mM ATP, 0.85 mM each of GTP, UTP and CTP, 1 mM DTT, 200 mM potassium glutamate, 80 mM ammonium acetate, 16 mM magnesium acetate, 34 μg/ml folinic acid, 170.6 μg/ml E. coli tRNA mixture, 13.3 μg/ml plasmid, 100 μg/ml T7 RNA polymerase, 2 mM each of 20 unlabeled amino acids, 11 μM [^14C]leucine, 2% Poly(ethylene glycol) 8000, 33 mM PEP, 0.33 mM nicotinamide adenine dinucleotide, 0.26 mM Coenzyme A, 2.7 mM sodium oxalate and 0.24 volumes of S30 extract. Prokaryotic cell-free protein synthesis is performed using a crude S30 extract derived from Escherichia coli K12 (strain A19 ΔtonA ΔtnaA ΔspeA ΔendA met+), with slight modifications from the protocol of Pratt, J. M. 1984. (Coupled transcription-translation in prokaryotic cell-free systems. In Transciption and translation: a practical approach. Hanes, B. D., and S. J. Higgins. (Eds.). p. 179-209. IRL Press, New York.) T7 RNA polymerase was prepared from E. coli strain BL21 (pAR1219) according to the procedures of Davanloo et al. 1984. (Cloning and expression of the gene for bacteriophage T7 RNA polymerase. Proc Natl Acad Sci USA 81:2035-2039.)
(§1) Reactions were incubated at 37° C. for 5-6 hours. The amount of synthesized protein is estimated from the measured TCA-insoluble radioactivities using a liquid scintillation counter (Beckman LS3801). (Kim et al. 1996). Soluble protein yields were determined as previously described. (Kim and Swartz 2000).

[2] = tested on: CAT expression in E. coli S30 extract cell-free protein synthesis
Method: as §1

[3] = tested on: oxidative phosphorylation (electron transport chain); experiment: CAT synthesis in new system with inhibitor of oxidative phosphorylation, oxygen or argon headspace; details: 20 μl batch, 37° C., 5 hours
Method: In seeking to understand how this yield was accomplished, inhibitors of oxidative phosphorylation were tested to establish that this process was partially responsible for the protein production capability of this new technology. […] HQNO inhibits the electron transport chain part of oxidative phosphorylation. All cases are 20 μl batch reactions, and were incubated at 37° C. for 5 hours. The head spaces of the batch reactors were filled with either oxygen or argon, an inert gas. […]. Furthermore, protein synthesis should be unaffected upon the addition of HQNO in the cases where argon is present and oxygen is not available.

**Q.** How did the “optimal magnesium value in the standard reaction mixture” value [1] turn out when `CC(=O)[O-].CC(=O)[O-].[Mg+2]` [magnesium acetate] was run?
**A.** 19.3 mM

**Q.** How did the “protein synthesis yields in the PANOx system with inhibitor of oxidative phosphorylation” value ([1]; PANOx system) turn out when `O=C(CC(=O)C(F)(F)F)c1cccs1` [thenoyltrifluoroacetone] was run?
**A.** unaffected

**Q.** How did the “effect of removal of the cofactor on relative protein production” value ([2]; Cytomim system, CAT, 15 μl, 6 hours) turn out when `CC(C)(COP(=O)(O)OP(=O)(O)OC[C@H]1O[C@@H](n2cnc3c(N)ncnc32)[C@H](O)[C@@H]1OP(=O)(O)O)[C@@H](O)C(=O)NCCC(=O)NCCS` [CoA, Coenzyme A] was run?
**A.** no significant effect

**Q.** With `N[C@@H](CCC(=O)[O-])C(=O)[O-].[Mg+2]` [magnesium glutamate] as the compound, how does the “optimal magnesium value in the standard reaction mixture” value ([1]; standard reaction mixture, includes Mg from cell extract) read?
**A.** 23.3 mM

**Q.** Which “protein synthesis yields in the PANOx system with inhibitor of oxidative phosphorylation” value ([1]; PANOx system) does the source give for `N#CC(C#N)=NNc1cccc(Cl)c1` [carbonyl-cyanide-m-chlorophenylhydrazone] here?
**A.** unaffected

**Q.** What does the source list for `CCCCCCCc1cc(O)c2ccccc2[n+]1[O-]` [HQNO, 2-heptyl-4-hydroxyquinoline-N-oxide]?
**A.** CAT synthesis after inhibitor addition ([3]; argon headspace): unaffected; CAT synthesis after inhibitor addition ([3]; presence of oxygen, with or without pyruvate): substantially decreases

**Q.** With `[Mg+2]` [magnesium] as the compound, how does the “optimum magnesium concentration for protein expression” value ([2]; new environment, with 33 mM sodium pyruvate, includes Mg from cell extract) read?
**A.** approximately 11 mM

**Q.** `O=[N+]([O-])c1ccc(O)c([N+](=O)[O-])c1` [2,4-dinitrophenol] was tested. Which “protein synthesis yields in the PANOx system with inhibitor of oxidative phosphorylation” value ([1]; PANOx system) did it give?
**A.** unaffected

**Q.** With `[N-]=[N+]=[N-]` [azide] as the compound, how does the “protein synthesis yields in the PANOx system with inhibitor of oxidative phosphorylation” value [1] read?
**A.** unaffected
